Measurements taken from patent US20260297081A1, “COMPOUNDS AND METHODS OF TREATING CANCERS” (Cullgen Inc., priority 2023, published 2026).

What was measured:
Type in all cases: cell-based
[1] = test system: Calu-1 cells; experiment: Anti-proliferation (viability) of NSCLC Calu-1 cells, 3 days (Table 7, FIG. 2B); conditions: Homo sapiens, 72 h; Calu-1 cells, 3 days, 10-point serial dilution; read-out: GI IC50 in Calu-1
How it was run: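 Heterobifunctional compounds are tested in 10-point serial dilutions on Calu-1 (3-day exposure) and T47D (6-day exposure) cells.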

[2] = test system: MCF7 cells; experiment: Anti-proliferation (viability) of MCF7 cells (Table 7, FIG. 2B); conditions: Homo sapiens, MCF7, MCF7 cells, 3-6 days, 10-point serial dilution; read-out: GI IC50 in MCF-7
[3] = target: CDK4 (Homo sapiens, UniProt P11802+Q16531); experiment: CDK4 percentage degradation in Calu-1 cells (Table 6); parameters: Cells that express cyclin D1-3 and CDK4/6 proteins were treated with heterobifunctional compounds; endogenous in cells; host or cells: Calu-1; conditions: 16 hours; for inhibition at 0.04 µM: 40 nM; for inhibition at 0.2 µM: 200 nM
How it was run: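 Calu-1 cells exposed to heterobifunctional compounds at 40 nM or 200 nM for 16 h. Cyclin D1 and CDK4 levels measured by Western blot of RIPA lysates (BCA-normalised loading), bands quantified by densitometry and expressed as percentage degradation.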

Chain of CDK4 (P11802 2-303 limits assumed): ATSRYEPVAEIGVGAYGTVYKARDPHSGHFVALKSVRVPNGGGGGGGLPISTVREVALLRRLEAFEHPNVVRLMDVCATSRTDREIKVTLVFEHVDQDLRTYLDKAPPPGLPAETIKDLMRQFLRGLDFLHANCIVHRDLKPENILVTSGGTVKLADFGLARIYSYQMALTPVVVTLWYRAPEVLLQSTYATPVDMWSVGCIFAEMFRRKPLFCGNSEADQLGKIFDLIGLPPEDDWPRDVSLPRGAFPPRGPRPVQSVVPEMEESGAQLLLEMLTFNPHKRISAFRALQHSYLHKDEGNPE
Chain of CDK4 (P24385 whole entry partner): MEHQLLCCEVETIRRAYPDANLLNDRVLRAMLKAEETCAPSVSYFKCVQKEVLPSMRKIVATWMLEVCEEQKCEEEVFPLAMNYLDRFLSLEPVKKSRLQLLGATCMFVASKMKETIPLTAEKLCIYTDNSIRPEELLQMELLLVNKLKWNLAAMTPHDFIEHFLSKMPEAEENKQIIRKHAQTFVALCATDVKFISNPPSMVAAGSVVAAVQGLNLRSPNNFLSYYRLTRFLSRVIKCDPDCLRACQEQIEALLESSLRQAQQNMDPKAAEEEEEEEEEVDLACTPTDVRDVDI
Chain of CDK4 (Q16531 2-1140 limits assumed): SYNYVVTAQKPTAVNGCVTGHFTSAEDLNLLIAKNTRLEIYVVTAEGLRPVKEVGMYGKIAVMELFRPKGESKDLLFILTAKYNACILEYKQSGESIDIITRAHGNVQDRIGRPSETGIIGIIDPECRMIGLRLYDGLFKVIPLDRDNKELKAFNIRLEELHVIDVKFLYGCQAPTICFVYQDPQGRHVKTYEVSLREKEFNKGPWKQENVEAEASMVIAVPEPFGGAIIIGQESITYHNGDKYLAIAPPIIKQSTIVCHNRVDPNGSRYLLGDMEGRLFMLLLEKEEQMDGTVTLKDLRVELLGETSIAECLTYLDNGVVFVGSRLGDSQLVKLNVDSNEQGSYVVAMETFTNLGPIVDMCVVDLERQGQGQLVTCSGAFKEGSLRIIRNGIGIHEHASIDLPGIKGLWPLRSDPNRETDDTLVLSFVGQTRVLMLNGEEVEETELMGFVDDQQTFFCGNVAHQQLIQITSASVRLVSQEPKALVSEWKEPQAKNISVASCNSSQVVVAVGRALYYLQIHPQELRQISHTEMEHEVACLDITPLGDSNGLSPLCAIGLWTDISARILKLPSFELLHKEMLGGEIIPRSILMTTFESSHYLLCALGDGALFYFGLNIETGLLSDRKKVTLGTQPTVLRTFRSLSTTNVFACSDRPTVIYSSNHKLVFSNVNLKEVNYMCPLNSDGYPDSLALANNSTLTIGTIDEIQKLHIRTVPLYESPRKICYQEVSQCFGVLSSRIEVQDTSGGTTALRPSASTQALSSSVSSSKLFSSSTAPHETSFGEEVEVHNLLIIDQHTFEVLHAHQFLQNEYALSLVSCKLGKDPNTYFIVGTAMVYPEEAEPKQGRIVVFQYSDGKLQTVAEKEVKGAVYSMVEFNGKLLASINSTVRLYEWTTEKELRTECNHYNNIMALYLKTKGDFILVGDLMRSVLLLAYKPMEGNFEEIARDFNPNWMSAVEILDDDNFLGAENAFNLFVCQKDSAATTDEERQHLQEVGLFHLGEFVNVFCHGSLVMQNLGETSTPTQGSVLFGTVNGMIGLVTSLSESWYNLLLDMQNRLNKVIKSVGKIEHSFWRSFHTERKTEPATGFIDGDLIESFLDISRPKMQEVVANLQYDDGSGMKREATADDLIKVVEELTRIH

IC50 [1] | IC50 [2] | inhibition at 0.04 µM [3] | inhibition at 0.2 µM [3] | Structure (SMILES)
≤ 10 nM | < 50 nM | 50 to 80% | > 80% | CNc1ccc(C(=O)Nc2ccc(N(C)C)nn2)c(NC2CCC3(C2)CN(C(=O)CCN2CCN(c4ccc(Nc5ncc6c(C)c(C(C)=O)c(=O)n(C7CCCC7)c6n5)nc4)CC2)C3)n1 (centres unmarked) [CPD-158, 2-((2-(3-(4-(6-((6-acetyl-8-cyclopentyl-5-methyl-7-oxo-7,8-dihydropyrido[2,3-d]pyrimidin-2-yl)amino)pyridin-3-yl)piperazin-1-yl)propanoyl)-2-azaspiro[3.4]octan-6-yl)amino)-N-(6-(dimethylamino)pyridazin-3-yl)-6-(methylamino)nicotinamide]
≤ 10 nM | > 100 nM | 50 to 80% | > 80% | CNc1ccc(C(=O)Nc2cc(C)n(C)n2)c(NC2CC(CNC(=O)CN3CCN(c4ccc(Nc5ncc6c(C)c(C(C)=O)c(=O)n(C7CCCC7)c6n5)nc4)CC3)C2)n1 (centres unmarked) [CPD-165, 2-((3-((2-(4-(6-((6-acetyl-8-cyclopentyl-5-methyl-7-oxo-7,8-dihydropyrido[2,3-d]pyrimidin-2-yl)amino)pyridin-3-yl)piperazin-1-yl)acetamido)methyl)cyclobutyl)amino)-N-(1,5-dimethyl-1H-pyrazol-3-yl)-6-(methylamino)nicotinamide]
≤ 10 nM | < 50 nM | > 80% | > 80% | CNc1ccc(C(=O)Nc2ccc(N(C)C)nn2)c(NC2CC(CNC(=O)C(C)(C)N3CCN(c4ccc(Nc5ncc6c(C)c(C(C)=O)c(=O)n(C7CCCC7)c6n5)nc4)CC3)C2)n1 (centres unmarked) [CPD-167, 2-((3-((2-(4-(6-((6-acetyl-8-cyclopentyl-5-methyl-7-oxo-7,8-dihydropyrido[2,3-d]pyrimidin-2-yl)amino)pyridin-3-yl)piperazin-1-yl)-2-methylpropanamido)methyl)cyclobutyl)amino)-N-(6-(dimethylamino)pyridazin-3-yl)-6-(methylamino)nicotinamide]
≤ 10 nM | 50 to 100 nM | 50 to 80% | > 80% | CNc1ccc(C(=O)Nc2cccc(C)n2)c(NC2CC(CNC(=O)CN3CCN(c4ccc(Nc5ncc6c(C)c(C(C)=O)c(=O)n(C7CCCC7)c6n5)nc4)CC3)C2)n1 (centres unmarked) [CPD-170, 2-((3-((2-(4-(6-((6-acetyl-8-cyclopentyl-5-methyl-7-oxo-7,8-dihydropyrido[2,3-d]pyrimidin-2-yl)amino)pyridin-3-yl)piperazin-1-yl)acetamido)methyl)cyclobutyl)amino)-6-(methylamino)-N-(6-methylpyridin-2-yl)nicotinamide]
≤ 10 nM | < 50 nM | > 80% | > 80% | CNc1ccc(C(=O)Nc2cccc(C)n2)c(NC2CC3(C2)CN(C(=O)C2(CN4CCN(c5ccc(Nc6ncc7c(C)c(C(C)=O)c(=O)n(C8CCCC8)c7n6)nc5)CC4)CC2)C3)n1 [CPD-171, 2-((2-(1-((4-(6-((6-acetyl-8-cyclopentyl-5-methyl-7-oxo-7,8-dihydropyrido[2,3-d]pyrimidin-2-yl)amino)pyridin-3-yl)piperazin-1-yl)methyl)cyclopropane-1-carbonyl)-2-azaspiro[3.3]heptan-6-yl)amino)-6-(methylamino)-N-(6-methylpyridin-2-yl)nicotinamide]
≤ 10 nM | < 50 nM | > 80% | > 80% | CNc1ccc(C(=O)Nc2cccc(C3CC3)n2)c(NC2CC3(C2)CN(C(=O)C2(CN4CCN(c5ccc(Nc6ncc7c(C)c(C(C)=O)c(=O)n(C8CCCC8)c7n6)nc5)CC4)CC2)C3)n1 [CPD-173, 2-((2-(1-((4-(6-((6-acetyl-8-cyclopentyl-5-methyl-7-oxo-7,8-dihydropyrido[2,3-d]pyrimidin-2-yl)amino)pyridin-3-yl)piperazin-1-yl)methyl)cyclopropane-1-carbonyl)-2-azaspiro[3.3]heptan-6-yl)amino)-N-(6-cyclopropylpyridin-2-yl)-6-(methylamino)nicotinamide]
10 to 50 nM | > 100 nM | 50 to 80% | > 80% | CNc1ccc(C(=O)Nc2ccc(N(C)C)nn2)c(NC2CC3(CC(NC(=O)C(C)(C)N4CCN(c5ccc(Nc6ncc7c(C)c(C(C)=O)c(=O)n(C8CCCC8)c7n6)nc5)CC4)C3)C2)n1 (centres unmarked) [CPD-174, 2-((6-(2-(4-(6-((6-acetyl-8-cyclopentyl-5-methyl-7-oxo-7,8-dihydropyrido[2,3-d]pyrimidin-2-yl)amino)pyridin-3-yl)piperazin-1-yl)-2-methylpropanamido)spiro[3.3]heptan-2-yl)amino)-N-(6-(dimethylamino)pyridazin-3-yl)-6-(methylamino)nicotinamide]
≤ 10 nM | 50 to 100 nM | 50 to 80% | 50 to 80% | CNc1ccc(C(=O)Nc2ccc(N(C)C)nn2)c(NC2CC(OCCC(=O)N3CCN(c4ccc(Nc5ncc6c(C)c(C(C)=O)c(=O)n(C7CCCC7)c6n5)nc4)CC3)C2)n1 (centres unmarked) [CPD-178, 2-((3-(3-(4-(6-((6-acetyl-8-cyclopentyl-5-methyl-7-oxo-7,8-dihydropyrido[2,3-d]pyrimidin-2-yl)amino)pyridin-3-yl)piperazin-1-yl)-3-oxopropoxy)cyclobutyl)amino)-N-(6-(dimethylamino)pyridazin-3-yl)-6-(methylamino)nicotinamide]
10 to 50 nM | > 100 nM | 50 to 80% | 50 to 80% | CNc1ccc(C(=O)Nc2ccc(N(C)C)nn2)c(NC2CN(C(=O)CCN3CCN(c4ccc(Nc5ncc6c(C)c(C(C)=O)c(=O)n(C7CCCC7)c6n5)nc4)CC3)C2)n1 [CPD-186, 2-((1-(3-(4-(6-((6-acetyl-8-cyclopentyl-5-methyl-7-oxo-7,8-dihydropyrido[2,3-d]pyrimidin-2-yl)amino)pyridin-3-yl)piperazin-1-yl)propanoyl)azetidin-3-yl)amino)-N-(6-(dimethylamino)pyridazin-3-yl)-6-(methylamino)nicotinamide]
10 to 50 nM | > 100 nM | 50 to 80% | 50 to 80% | CNc1ccc(C(=O)Nc2ccc(N(C)C)nn2)c(NC2CC3(C2)CC(OC(C)C(=O)N2CCN(c4ccc(Nc5ncc6c(C)c(C(C)=O)c(=O)n(C7CCCC7)c6n5)nc4)CC2)C3)n1 (centres unmarked) [CPD-189, 2-((6-((1-(4-(6-((6-acetyl-8-cyclopentyl-5-methyl-7-oxo-7,8-dihydropyrido[2,3-d]pyrimidin-2-yl)amino)pyridin-3-yl)piperazin-1-yl)-1-oxopropan-2-yl)oxy)spiro[3.3]heptan-2-yl)amino)-N-(6-(dimethylamino)pyridazin-3-yl)-6-(methylamino)nicotinamide]
≤ 10 nM | 50 to 100 nM | 50 to 80% | 50 to 80% | CC(=O)c1c(C)c2cnc(Nc3ccc(N4CCN(CC(=O)NC5CC6(C5)CC(Nc5nc(NC(C)C)ccc5C(=O)Nc5cccc(C)n5)C6)CC4)cn3)nc2n(C2CCCC2)c1=O (centres unmarked) [CPD-190, 2-((6-(2-(4-(6-((6-acetyl-8-cyclopentyl-5-methyl-7-oxo-7,8-dihydropyrido[2,3-d]pyrimidin-2-yl)amino)pyridin-3-yl)piperazin-1-yl)acetamido)spiro[3.3]heptan-2-yl)amino)-6-(isopropylamino)-N-(6-methylpyridin-2-yl)nicotinamide]
≤ 10 nM | 50 to 100 nM | 50 to 80% | 50 to 80% | CC(=O)c1c(C)c2cnc(Nc3ccc(N4CCN(CC(=O)NC5CC6(C5)CC(Nc5nc(NC(C)C)ccc5C(=O)Nc5cc(C)on5)C6)CC4)cn3)nc2n(C2CCCC2)c1=O (centres unmarked) [CPD-199, 2-((6-(2-(4-(6-((6-acetyl-8-cyclopentyl-5-methyl-7-oxo-7,8-dihydropyrido[2,3-d]pyrimidin-2-yl)amino)pyridin-3-yl)piperazin-1-yl)acetamido)spiro[3.3]heptan-2-yl)amino)-6-(isopropylamino)-N-(5-methylisoxazol-3-yl)nicotinamide]
≤ 10 nM | 50 to 100 nM | 50 to 80% | 50 to 80% | CNc1ccc(C(=O)Nc2ccc(N(C)C)nn2)c(NC2CCN(C(=O)CN3CCN(c4ccc(Nc5ncc6c(C)c(C(C)=O)c(=O)n(C7CCCC7)c6n5)nc4)CC3)CC2)n1 [CPD-200, 2-((1-(2-(4-(6-((6-acetyl-8-cyclopentyl-5-methyl-7-oxo-7,8-dihydropyrido[2,3-d]pyrimidin-2-yl)amino)pyridin-3-yl)piperazin-1-yl)acetyl)piperidin-4-yl)amino)-N-(6-(dimethylamino)pyridazin-3-yl)-6-(methylamino)nicotinamide]
≤ 10 nM | > 100 nM | 50 to 80% | 50 to 80% | [2H]C([2H])([2H])Nc1ccc(C(=O)Nc2cc(C)n(C)n2)c(NC2CC(CNC(=O)CN3CCN(c4ccc(Nc5ncc6c(C)c(C(C)=O)c(=O)n(C7CCCC7)c6n5)nc4)CC3)C2)n1 (centres unmarked) [CPD-206, 2-((3-((2-(4-(6-((6-acetyl-8-cyclopentyl-5-methyl-7-oxo-7,8-dihydropyrido[2,3-d]pyrimidin-2-yl)amino)pyridin-3-yl)piperazin-1-yl)acetamido)methyl)cyclobutyl)amino)-N-(1,5-dimethyl-1H-pyrazol-3-yl)-6-((methyl-d3)amino)nicotinamide]
